Assay results from EP4755880A1, “SUBSTITUTED NITROGEN-CONTAINING BICYCLIC COMPOUND AND USE THEREOF” (Sunshine Lake Pharma Co., Ltd., priority 2023, dated 2025).

Tests used:
MDA-MB-436 cells = assay: Inhibition of proliferation of MDA-MB-436 cells (CellTiter-Glo); type: cell-based; conditions: Homo sapiens, MDA-MB-436, 168 h, 7 days incubation
Description: • 1. Cell Pretreatment: MDA-MB-436 cells were cultured in DMEM + 10% FBS + 1% penicillin-dip antibiotics + 1% ITS + 16 µg/ml glutathione. Cells in the logarithmic growth phase were digested with trypsin-EDTA, centrifuged and resuspended, and then seeded at a rate of 500-1000 cells/well in sterile 96-well opaque plates, 90 µl per well. After seeding, the cell culture plates were incubated overnight at 37°C with 5% CO2 before drug treatment. • 2. Drug treatment of MDA-MB-436 cells: The test compound was prepared as a 10 mM stock solution using DMSO. The drug was then diluted to a 10× working solution using growth medium (the compound was started at 100 µM and diluted 4-fold to achieve 9 concentrations). 10 µl of the 10× working solution was added to each well to achieve final drug concentrations of 10000, 2500, 625, 156, 39, 9.7, 2.4, 0.61, and 0.152 nM, respectively. Blank control wells containing the same DMSO concentration were also included, with three replicates for each concentration. After drug addition, the cells were incubated at 37°C with 5% CO2 for 7 days. • 3. After incubation, 100 µl of CellTiter-Glo® Reagent was added to each well, and luminescence was measured. The IC50 value of cell proliferation inhibition was calculated using GraphPad software to fit the curve. Table E: Results of the inhibitory effect of the compound of this invention on the proliferation of MDA-MB-436 cells.

PARP2 = PARP2 (Homo sapiens, UniProt Q9UGN5); assay: biochemical;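 also: PARP2 enzyme ELISA on histone-coated plates, Strep-HRP detection with chemiluminescence read-out, 10 min compound preincubation with enzyme, inhibition scaled between Max and Min signal controls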
PARP2, sequence (Q9UGN5 whole entry): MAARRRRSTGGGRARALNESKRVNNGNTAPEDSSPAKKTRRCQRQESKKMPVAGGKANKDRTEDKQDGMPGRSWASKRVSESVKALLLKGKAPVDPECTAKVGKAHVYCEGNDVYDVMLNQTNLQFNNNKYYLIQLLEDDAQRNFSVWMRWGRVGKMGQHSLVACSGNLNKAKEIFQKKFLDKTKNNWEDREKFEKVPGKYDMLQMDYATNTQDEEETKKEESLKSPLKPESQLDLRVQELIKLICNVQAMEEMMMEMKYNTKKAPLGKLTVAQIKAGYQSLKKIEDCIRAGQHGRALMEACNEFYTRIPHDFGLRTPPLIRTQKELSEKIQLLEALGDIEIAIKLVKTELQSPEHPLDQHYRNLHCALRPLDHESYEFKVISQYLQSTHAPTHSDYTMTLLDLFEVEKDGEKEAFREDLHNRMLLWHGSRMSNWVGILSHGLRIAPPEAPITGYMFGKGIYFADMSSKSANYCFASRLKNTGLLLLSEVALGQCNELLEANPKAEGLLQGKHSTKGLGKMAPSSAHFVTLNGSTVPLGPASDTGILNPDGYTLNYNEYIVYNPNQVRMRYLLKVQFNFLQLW
Description: (§1) Experimental Objective: To evaluate the inhibitory effect of the compounds of the present invention on the enzyme activities of PARP1 and PARP2 using ELISA.
(§2) • 1. histone-coated 384-well plates was prepared: 25 µL of histone solution was added to each well and incubated overnight at 4 °C. • 2. PBST buffer, blocking buffer (PBS buffer with 5% BSA and 0.05% Tween-20 added) and detection buffer (20 mM HEPES pH 7.5 + 100 mM NaCl + 2 mM DTT + 0.002% Tween-20 + 0.1% BSA) were prepared. • 3. The histone-coated 3 84-well plate was washed three times with PBST buffer, blocked at room temperature with 50 µL blocking buffer for 1 hour, and then washed three times with PBST buffer. • 4. Test compounds were prepared as 2000-fold stock solutions in DMSO. 50 nL of the stock solution was mixed with 19.95 µL detection buffer, and 5 µL of the gradient-diluted test compound was transferred to each well. • 5. Enzymatic reaction (PARP1): PARP1 & DNA mix was pre-incubated at 25 °C for 10 minutes. 10 µL of the PARP1 & DNA mix was added to each well and incubated with the test compound at room temperature for 10 minutes. […] Finally, the 384-well plate was washed three times with PBST buffer. Enzymatic reaction (PARP2): PARP2 was pre-incubated at 25 °C for 10 minutes. 10 µL of PARP2 was added to each well and incubated with the test compound at room temperature for 10 minutes. […] Finally, the 384-well plate was washed three times with PBST buffer. • 6. Detection (PARP1): 20 µL of anti-Poly/Mono-ADP Ribose Rabbit mAb was added and incubated at room temperature for 1.5 hours, followed by three washes of the 384-well plate with PBST buffer. Then, 20 µL of diluted anti-rabbit IgG, HRP-linked Antibody (diluted 1:2000 in blocking buffer) was added and incubated at room temperature for 1 hour. After washing the plate three times with PBST buffer, 25 µL of a 1:1 mixture of Femto-ECL Substrate A and Femto-ECL Substrate B was added. Detection (PARP2): 25 µL of Strep-HRP was added and incubated at room temperature for 1 hour, followed by three washes of the 384-well plate with PBS buffer. Then, 25 µL of a 1:1 mixture of Femto-ECL Substrate A and Femto-ECL Substrate B was added. • 7. Chemiluminescence intensity was measured using an Envision multimode microplate reader. • 8. Data Processing
(§3) The inhibition rate was calculated in Excel using formula (1). inh% = (Max−Signal)/(Max−Min)*100 [formula]
(§4) The IC50 value was obtained by fitting the data in XL-Fit using formula (2). Y = bottom + (top−bottom)/(1+(IC50/X)*HillSlope); [formula] wherein Y is the inhibition percentage and X is the compound concentration.

DLD-1 BRCA2(-/-) cells = assay: Inhibition of proliferation of DLD-1 BRCA2(-/-) cells (CTG method); type: cell-based; conditions: Homo sapiens, DLD-1, 168 h; 7 days incubation, CellTiter-Glo
Summary of the method: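 DLD-1 BRCA2(-/-) cells, 1,000 per well, attached overnight, then exposed to compound at final 10000 to 0.152 nM (4-fold series) in triplicate for 7 days at 37 °C, 5% CO2. Viability by CellTiter-Glo luminescence; IC50 for proliferation inhibition from a fitted curve.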

[1] = Pharmacokinetics in SD rats after intravenous injection or gavage; conditions: rat, plasma
Description: (§5) The compounds of the present invention were administered to test animals in the form of 5% DMSO + 30% PEG400 + 65% physiological saline, 10% DMSO + 10% Kolliphor HS15 + 80% Saline, 10% DMSO + 89% (25% SBE-B-CD) + (2% HCl), 20% PEG400 + 80% sterile water for injection, or 10% DMA+ 10% HS15 + 30% PEG400 + 50% sterile aqueous solution for injection. Animals were fasted for 12 hours before administration but had free access to water. For the intravenous administration group, the dose was 1 mg/kg. Blood samples (approximately 0.15 mL) were collected intravenously at the following time points after administration: 0.083, 0.25, 0.5, 1.0, 2.0, 4.0, 6.0, 8.0 and 24 h (dogs) or 0.083, 0.25, 0.5, 1.0, 2.0, 5.0, 7.0 and 24 h (mice and rats) or 0.083, 0.25, 0.5, 1.0, 2.0, 6.0, 8.0 and 24 h (monkeys). EDTA-K2 was pre-added to the blood collection tube as an anticoagulant. The blood samples were centrifuged at 12,000 rpm for 2 minutes, and plasma was collected and stored at -20 °C or - 70 °C. For the gavage administration group, the dosage was 1 mg/kg (mice, dogs, and monkeys) or 5 mg/kg (rats). After administration, venous blood samples (approximately 0.15 mL) were collected at the following time points: 0.25, 0.5, 1.0, 2.0, 4.0, 6.0, 8.0, and 24 h (dogs) or 0.25, 0.5, 1.0, 2.0, 5.0, 7.0, and 24 h (mice and rats) or 0.25, 0.5, 1.0, 2.0, 6.0, 8.0, and 24 h (monkeys). EDTA-K2 was pre-added to the blood collection tube as an anticoagulant. The blood samples were centrifuged at 12,000 rpm for 2 minutes, and plasma was collected and stored at -20 °C or -70 °C.
(§6) The collected plasma samples were processed (frozen plasma was thawed at room temperature, vortexed for 15 s to mix, 10-20 µL of plasma was taken, 120-150 µL of acetonitrile solution containing internal standard was added, vortexed for 5 min to mix, centrifuged at 4,000 rpm for 5 min, 100 µL of supernatant was taken, and 120-150 Ml/water (v/v = 1/1) was added and mixed). The concentration of compounds in the plasma was then analyzed by LC-MS/MS.
Table D Pharmacokinetic parameters of compounds of the present invention in SD rats

PARP1 = PARP1 (Homo sapiens, UniProt P09874); assay: Inhibition of PARP1 enzyme activity (ELISA, chemiluminescence); type: biochemical; conditions: for IC50: ELISA, histone-coated plate, NAD+, 60 min at 25 °C; for Selectivity PARP2/PARP1: ratio of PARP2 IC50 to PARP1 IC50
PARP1, sequence (P09874 whole entry): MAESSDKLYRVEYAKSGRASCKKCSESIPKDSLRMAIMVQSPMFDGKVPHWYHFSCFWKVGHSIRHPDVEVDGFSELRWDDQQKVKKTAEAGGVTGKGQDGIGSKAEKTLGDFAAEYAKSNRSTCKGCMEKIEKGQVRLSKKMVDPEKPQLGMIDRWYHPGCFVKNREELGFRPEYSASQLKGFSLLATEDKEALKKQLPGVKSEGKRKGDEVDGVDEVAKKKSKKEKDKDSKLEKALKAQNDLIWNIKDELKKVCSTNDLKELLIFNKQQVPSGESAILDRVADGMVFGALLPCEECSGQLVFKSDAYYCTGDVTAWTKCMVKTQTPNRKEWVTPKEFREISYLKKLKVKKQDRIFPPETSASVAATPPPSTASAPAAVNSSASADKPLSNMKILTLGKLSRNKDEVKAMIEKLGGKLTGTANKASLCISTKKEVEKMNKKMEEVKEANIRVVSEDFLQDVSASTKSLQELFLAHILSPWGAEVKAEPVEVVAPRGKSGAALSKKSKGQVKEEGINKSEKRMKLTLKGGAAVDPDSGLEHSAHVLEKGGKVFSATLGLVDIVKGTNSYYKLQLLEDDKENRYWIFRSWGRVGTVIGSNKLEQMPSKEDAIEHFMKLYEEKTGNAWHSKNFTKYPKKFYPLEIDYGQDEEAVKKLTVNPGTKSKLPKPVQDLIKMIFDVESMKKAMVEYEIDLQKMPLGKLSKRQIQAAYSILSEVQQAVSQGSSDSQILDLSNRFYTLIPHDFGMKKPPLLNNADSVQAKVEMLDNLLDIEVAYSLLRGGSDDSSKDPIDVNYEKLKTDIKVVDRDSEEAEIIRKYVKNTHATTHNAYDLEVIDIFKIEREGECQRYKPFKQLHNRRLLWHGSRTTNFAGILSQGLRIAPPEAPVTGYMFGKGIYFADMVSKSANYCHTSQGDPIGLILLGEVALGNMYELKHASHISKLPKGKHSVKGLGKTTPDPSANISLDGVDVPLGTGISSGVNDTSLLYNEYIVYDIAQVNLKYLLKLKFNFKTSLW
Description: as §1, §2, §3, §4

[2] = Pharmacokinetics in mice after intravenous injection or gavage; conditions: BALB/c, mouse, plasma
Description: as §5, §6

| IC50 (MDA-MB-436 cells) [nM] | IC50 (PARP2) [nM] | IC50 (DLD-1 BRCA2(-/-) cells) [nM] | AUC(0-t) ([1]; iv, 1 mg/kg) [ng·h/mL] | Cmax ([1]; iv, 1 mg/kg) [ng/mL] | half-life ([1]; iv, 1 mg/kg) [min] | AUC(0-t) ([1]; po, 5 mg/kg) [ng·h/mL] | Cmax ([1]; po, 5 mg/kg) [ng/mL] | half-life ([1]; po, 5 mg/kg) [min] | IC50 (PARP1) [nM] | Selectivity PARP2/PARP1 (PARP1) | AUC(0-t) ([2]; iv, 2 mg/kg) [ng·h/mL] | Cmax ([2]; iv, 2 mg/kg) [ng/mL] | half-life ([2]; iv, 2 mg/kg) [min] | AUC(0-t) ([2]; po, 5 mg/kg) [ng·h/mL] | Cmax ([2]; po, 5 mg/kg) [ng/mL] | half-life ([2]; po, 5 mg/kg) [min] | Compound |
| --- | --- | --- | --- | --- | --- | --- | --- | --- | --- | --- | --- | --- | --- | --- | --- | --- | --- |
| 7.5 | 142 | 4.6 | 1990 | 653 | 204 | 13100 | 1400 | 222 | 2.67 | 53.2 | 2140 | 1220 | 114 | 4890 | 1780 | 144 | CNC(=O)c1ccc(N2CCN(Cc3cc(OC(C)C)c4nc(C)c(=O)[nH]c4c3)CC2)c(F)n1 [Example 3, 6-fluoro-5-(4-((8-isopropoxy-2-methyl-3-oxo-3,4-dihydroquinoxalin-6-yl)methyl)piperazin-1-yl)-N-methylpicolinamide] |
| 11.8 | > 10000 | 37.4 | 1670 | 1720 | 126 | 7870 | 3130 | 168 | 3.1 | 3254.4 | 2230 | 3150 | 78 | 4630 | 2720 | 114 | CC#Cc1cc(CN2CC=C(c3ccc(C(=O)NC4CC4)nc3F)CC2)c(F)c2[nH]c(=O)c(C)nc12 [Example 41, N-cyclopropyl-2-fluoro-1'-((5-fluoro-2-methyl-3-oxo-8-(prop-1-yn-1-yl)-3,4-dihydroquinoxalin-6-yl)methyl)-1',2',3',6'-tetrahydro-[3,4'-bipyridine]-6-carboxamide] |
| 0.3 | 221 | 7 |  |  |  |  |  |  | 0.9 | 239.7 | 18100 | 8180 | 150 | 61500 | 15100 | 150 | Cc1nc2c(OC(F)F)cc(CN3CC=C(c4ccc(C(=O)NC5CC5)nc4F)CC3)cc2[nH]c1=O [Example 42, N-cyclopropyl-1'-((8-(difluoromethoxy)-2-methyl-3-oxo-3,4-dihydroquinoxalin-6-yl)methyl)-2-fluoro-1',2',3',6'-tetrahydro-[3,4'-bipyridine]-6-carboxamide] |
| 0.2 | 64 | 3.2 | 4500 | 1410 | 192 | 21200 | 2150 | 204 | 2.5 | 25.0 | 11300 | 6460 | 96 | 25300 | 8750 | 120 | Cc1nc2c(OC(F)F)cc(CN3CCN(c4ccc(C(=O)NC5CC5)nc4F)CC3)cc2[nH]c1=O [Example 46, N-cyclopropyl-5-(4-((8-(ditluoromethoxy)-2-methyl-3-oxo-3,4-dihydroquinoxalin-6-yl)methyl)piperazin-1-yl)-6-fluoropicolinamide] |
| 1.4 |  | 2.2 | 3520 | 1190 | 210 | 31100 | 2580 | 228 |  |  | 17800 | 7220 | 150 | 67100 | 10700 | 168 | CNC(=O)c1ccc(N2CCN(Cc3cc(OC(F)F)c4nc(C)c(=O)[nH]c4c3)CC2)c(C)n1 [Example 52, 5-(4-((8-(difluoromethoxy)-2-methyl-3-oxo-3,4-dihydroquinoxalin-6-yl)methyl)piperazin-1-yl)-N,6-dimethylpicolinamide] |

The remaining lines, values behind:

| Compound | IC50 (MDA-MB-436 cells) [nM] | IC50 (PARP2) [nM] | IC50 (DLD-1 BRCA2(-/-) cells) [nM] | AUC(0-t) ([1]; iv, 1 mg/kg) [ng·h/mL] | Cmax ([1]; iv, 1 mg/kg) [ng/mL] | half-life ([1]; iv, 1 mg/kg) [min] | AUC(0-t) ([1]; po, 5 mg/kg) [ng·h/mL] | Cmax ([1]; po, 5 mg/kg) [ng/mL] | half-life ([1]; po, 5 mg/kg) [min] | IC50 (PARP1) [nM] | Selectivity PARP2/PARP1 (PARP1) | AUC(0-t) ([2]; iv, 2 mg/kg) [ng·h/mL] | Cmax ([2]; iv, 2 mg/kg) [ng/mL] | half-life ([2]; iv, 2 mg/kg) [min] | AUC(0-t) ([2]; po, 5 mg/kg) [ng·h/mL] | Cmax ([2]; po, 5 mg/kg) [ng/mL] | half-life ([2]; po, 5 mg/kg) [min] |
| --- | --- | --- | --- | --- | --- | --- | --- | --- | --- | --- | --- | --- | --- | --- | --- | --- | --- |
| CNC(=O)c1ccc(N2CCN(Cc3cc(-c4ccccc4)c4nc(C)c(=O)[nH]c4c3)CC2)c(F)n1 [Example 2, 6-fluoro-N-methyl-5-(4-((2-methyl-3-oxo-8-phenyl-3,4-dihydroquinoxalin-6-yl)methyl)piperazin-1-yl)picolinamide] | 20.2 | 3130 | 22.9 | 1090 | 534 | 126 | 5610 | 719 | 204 | 1.5 | 2084.7 | 2870 | 942 | 186 | 8560 | 1450 | 234 |
| CC#Cc1cc(CN2CCN(c3ccc(C(=O)NC)nc3F)CC2)cc2[nH]c(=O)c(C)nc12 [Example 7, 6-fluoro-N-methyl-5-(4-((2-methyl-3-oxo-8-(prop-1-yn-1-yl)-3,4-dihydroquinoxalin-6-yl)methyl)piperazin-1-yl)picolinamide] | 10.7 | 472 | 2.5 | 3370 | 1170 | 204 | 22400 | 2600 | 198 | 1.3 | 362.1 | 2140 | 1300 | 96 | 6370 | 3230 | 108 |
| CNC(=O)c1ccc(N2CCN(Cc3cc(OC(F)F)c4nc(C)c(=O)[nH]c4c3)CC2)c(F)n1 [Example 13, 5-(4-((8-(difluoromethoxy)-2-methyl-3-oxo-3,4-dihydroquinoxalin-6-yl)methyl)piperazin-1-yl)-6-fluoro-N-methylpicolinamide] | 3.5 | 183 | 1.3 | 7720 | 2730 | 192 | 57900 | 5810 | 264 | 0.713 | 256.6 | 17000 | 6560 | 114 | 33900 | 11500 | 174 |
| CNC(=O)c1ccc(C2=CCN(Cc3cc(OC(F)F)c4nc(C)c(=O)[nH]c4c3)CC2)c(F)n1 [Example 15, 1'-((8-(difluoromethoxy)-2-methyl-3-oxo-3,4-dihydroquinoxalin-6-yl)methyl)-2-fluoro-N-methyl-1',2',3',6'-tetrahydro-[3,4'-bipyridine]-6-carboxamide] | 1.3 | 137 | 4.1 | 6060 | 1560 | 246 | 31600 | 3630 | 270 | 0.6 | 248.4 | 75300 | 13600 | 228 | 189000 | 19000 | 252 |
| CC#Cc1cc(CN2CCN(c3ccc(C(=O)NC4CC4)nc3F)CC2)cc2[nH]c(=O)c(C)nc12 [Example 35, N-cyclopropyl-6-fluoro-5-(4-((2-methyl-3-oxo-8-(prop-1-yn-1-yl)-3,4-dihydroquinoxalin-6-yl)methyl)piperazin-1-yl)picolinamide] | 0.2 | 90.2 | 13 | 5680 | 2230 | 144 | 48300 | 4970 | 168 | 2 | 44.3 | 2750 | 3750 | 72 | 4860 | 2760 | 90 |
| CNC(=O)c1ccc(N2CCN(Cc3cc(OC4CCCC4)c4nc(C)c(=O)[nH]c4c3)CC2)c(F)n1 [Example 71, 5-(4-((8-(cyclopentoxy)-2-methyl-3-oxo-3,4-dihydroquinoxalin-6-yl)methyl)piperazin-1-yl)-6-fluoro-N-methylpyridine amide] | 9.3 | 1290 | 12.3 |  |  |  |  |  |  | 1.5 | 873.7 |  |  |  |  |  |  |
| CNC(=O)c1ccc(N2CCN(Cc3cc(OC4CCCCC4)c4nc(C)c(=O)[nH]c4c3)CC2)c(F)n1 [Example 72, 5-(4-((8-(cyclohexyloxy)-2-methyl-3-oxo-3,4-dihydroquinoxalin-6-yl)methyl)piperazin-1-yl)-6-fluoro-N-methylpyridine amide] | 12 | 992 | 9.1 |  |  |  |  |  |  | 1.3 | 756.9 |  |  |  |  |  |  |
